Laboratory results published in patent US20230086702A1, “SUBSTITUTED 2-AMINO-PYRAZOLYL-[1,2,4]TRIAZOLO[1,5A]PYRIDINE DERIVATIVES AND USE THEREOF” (The Johns Hopkins University, priority 2019, published 2023).

Tests used:
LZK = target: T1, LZK (Homo sapiens, UniProt O43283); assay: LZK biochemical assay (TR-FRET, MKK7 phosphorylation); details: LZK catalytic domain, MKK7 substrate, 15 μM ATP
T1 construct: 10 nM LZK, catalytic domain, Carna Biosiences in assay buffer; purchased Carna Biosciences ('Carna Biosiences' [sic])
T1 sequence (O43283 168-409 limits assumed): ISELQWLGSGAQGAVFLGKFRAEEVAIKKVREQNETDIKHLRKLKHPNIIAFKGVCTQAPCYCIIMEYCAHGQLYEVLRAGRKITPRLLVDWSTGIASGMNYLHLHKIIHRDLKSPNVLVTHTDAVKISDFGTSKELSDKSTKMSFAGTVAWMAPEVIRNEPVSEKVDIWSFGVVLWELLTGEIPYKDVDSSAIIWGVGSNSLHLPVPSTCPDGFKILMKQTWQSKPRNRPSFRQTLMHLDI
Protocol: (§1) LZK assay is a biochemical assay format designed to screen for inhibitors of LZK. Enzymatic activity of LZK is measured by monitoring phosphorylation of the physiological substrate MKK7 (MAP2K7, Dual specificity mitogen-activated protein kinase kinase 7). Phosphorylation is detected by a TR-FRET system whereby His-tagged MKK7 is labeled by a XL665-labeled anti-His antibody (FRET acceptor, emission 665 nm). LZK phosphorylates MKK7 at T275/S277 which is detected by an Eu-labeled anti-phospho-MKK7 (T275/S277) antibody (FRET donor, excitation 340 nm). Phosphorylation of MKK7 results in an increased TR-FRET signal (Ratio XL665-channel/Eu-channel) and inhibition of enzymatic activity of LZK decreases the TR-FRET signal.
All indicated concentrations final concentrations.
(§2) Detection buffer: 25 mM Tris/HCl pH 7.5, 100 mM EDTA, 100 mM NaCl, 200 mM KF, 0.01% Tween 20, 1:500 Smart Block.

DLK = target: T2, DLK (Homo sapiens, UniProt Q12852); assay: DLK biochemical assay (TR-FRET, MKK7 phosphorylation); details: DLK catalytic domain, MKK7 substrate, 60 μM ATP
T2 construct: 10 nM DLK, catalytic domain, Carna Biosiences; purchased Carna Biosciences ('Carna Biosiences' [sic])
T2 sequence (Q12852 125-366 limits assumed): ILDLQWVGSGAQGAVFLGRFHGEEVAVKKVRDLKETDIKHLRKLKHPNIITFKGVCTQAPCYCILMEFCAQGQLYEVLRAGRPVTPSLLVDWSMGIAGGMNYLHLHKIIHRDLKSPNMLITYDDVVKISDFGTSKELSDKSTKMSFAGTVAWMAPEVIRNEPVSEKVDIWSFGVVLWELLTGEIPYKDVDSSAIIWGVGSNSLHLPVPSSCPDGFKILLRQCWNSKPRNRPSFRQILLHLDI
Protocol: as §1, with “DLK assay” for “LZK assay”, “of DLK.” for “of LZK.”, “of DLK” for “of LZK”, “nm). DLK” for “nm). LZK”, “at T275/S277,” for “at T275/S277”
All indicated concentrations are final concentrations.
as §2

Compound	IC50 (LZK) [nM]	IC50 (DLK) [nM]
CCC(c1ccc(OCC(F)(F)F)nc1)n1cc(-c2cc(C(=O)N[C@@H](C)CC)c3nc(N)nn3c2)cn1 (mixture of isomers) [Example I-85, 2-Amino-N-[(2S)-butan-2-yl]-6-(1-{1-[6-(2,2,2-trifluoroethoxy)pyridin-3-yl]propyl}-1H-pyrazol-4-yl)[1,2,4]triazolo[1,5-a]pyridine-8-carboxamide]	38	4.7
CC[C@H](C)NC(=O)c1cc(-c2cnn(C(c3ccc(C(F)(F)F)nc3)C3CCOCC3)c2)cc2nc(N)nn12 (mixture of isomers) [Example I-110, 2-Amino-N-[(2S)-butan-2-yl]-7-(1-{tetrahydro-2H-pyran-4-yl[6-(trifluoromethyl)pyridin-3-yl]methyl}-1H-pyrazol-4-yl)[1,2,4]triazolo[1,5-a]pyridine-5-carboxamide]	2.3	1.6
CCC(c1ccc(Cl)s1)n1cc(-c2cc(C(=O)N[C@@H](C)CC)c3nc(N)nn3c2)cn1 (mixture of isomers) [Example I-129, 2-Amino-N-[(2S)-butan-2-yl]-6-{1-[1-(5-chloro-2-thienyl)propyl]-1H-pyrazol-4-yl}[1,2,4]triazolo[1,5-a]pyridine-8-carboxamide]	39	3.4
CCC(c1ccc(OC(F)(F)F)nc1)n1cc(-c2cc(C(=O)NC(C)(C)CO)c3nc(N)nn3c2)cn1 (racemic) [Example I-169, 2-Amino-N-(1-hydroxy-2-methylpropan-2-yl)-6-(1-{1-[6-(trifluoromethoxy)pyridin-3-yl]propyl}-1H-pyrazol-4-yl)[1,2,4]triazolo[1,5-a]pyridine-8-carboxamide]	71	26
C[C@@H](CO)NC(=O)c1cc(-c2cnn(C(c3ccc(C(F)(F)F)nc3)C3CCOCC3)c2)cn2nc(N)nc12 (single isomer, unassigned) [Example I-156, 2-Amino-N-[(25)-1-hydroxypropan-2-yl]-6-(1-{tetrahydro-2H-pyran-4-yl[6-(trifluoromethyl)pyridin-3-yl]methyl}-1H-pyrazol-4-yl)[1,2,4]triazolo[1,5-a]pyridine-8-carboxamide]	23	13
CCC(c1ccc(C(F)(F)F)nc1)n1cc(-c2cc(C(=O)N[C@@H](C)CC)c3nc(N)nn3c2)cn1 (mixture of isomers) [Example I-70, 2-Amino-N-[(2S)-butan-2-yl]-6-(1-{1-[6-(trifluoromethyl)pyridin-3-yl]propyl}-1H-pyrazol-4-yl)[1,2,4]triazolo[1,5-a]pyridine-8-carboxamide]	6.5	2.1
CCC(c1ccc(C(F)(F)F)nc1)n1cc(-c2cc(C(=O)N[C@H]3CCOC3)n3nc(N)nc3c2)cn1 (single isomer, unassigned) [Example I-179]	7.9	1.8
CCC(c1ccc(OCC(F)(F)F)nc1)n1cc(-c2cc(C(=O)N[C@@H](C)CC)c3nc(N)nn3c2)cn1 (single isomer, unassigned) [Example I-87]	16	1.3
CC[C@H](NC(=O)c1cc(-c2cnn(Cc3ccccc3)c2)cn2nc(N)nc12)C(F)(F)F (single isomer, unassigned) [Example I-133]	330	110
Nc1nc2cc(-c3cnn(C(c4ccc(C(F)(F)F)nc4)C4CCOCC4)c3)cc(C(=O)N[C@H]3CCOC3)n2n1 (single isomer, unassigned) [Example I-184]	22	13
CC[C@H](C)NC(=O)c1cc(-c2cnn(C(c3ccccc3)C3CC(F)(F)C3)c2)cn2nc(N)nc12 (single isomer, unassigned) [Example I-33]	59	2.2
CC[C@H](C)NC(=O)c1cc(-c2cnn(C(COC)c3ccccc3)c2)cn2nc(N)nc12 (mixture of isomers) [Example I-40, 2-Amino-N-[(2S)-butan-2-yl]-6-[1-(2-methoxy-1-phenylethyl)-1H-pyrazol-4-yl][1,2,4]triazolo[1,5-a]pyridine-8-carboxamide]	67	4.5
CC[C@H](C)NC(=O)c1cc(-c2cnn(C(c3ccc(F)cc3)C(C)C)c2)cn2nc(N)nc12 (mixture of isomers) [Example I-43, 2-Amino-N-[(2S)-butan-2-yl]-6-{1-[1-(4-fluorophenyl)-2-methylpropyl]-1H-pyrazol-4-yl}[1,2,4]triazolo[1,5-a]pyridine-8-carboxamide]	66	2.9
CC[C@H](C)NC(=O)c1cc(-c2cnn([C@H](c3ccc(C(F)(F)F)nc3)C3CC3)c2)cc2nc(N)nn12 (single isomer, unassigned) [Example I-109]	3.5	1.8
CC(C)C(c1cncc(Cl)c1)n1cc(-c2cc(C(=O)NC(C)(C)CO)c3nc(N)nn3c2)cn1 (racemic) [Example I-172, 2-Amino-6-{1-[1-(5-chloropyridin-3-yl)-2-methylpropyl]-1H-pyrazol-4-yl}-N-(1-hydroxy-2-methylpropan-2-yl)[1,2,4]triazolo[1,5-a]pyridine-8-carboxamide]	76	4
CC[C@H](C)NC(=O)c1cc(-c2cnn(C(c3ccc(C(F)(F)F)nc3)C3CCOCC3)c2)cn2nc(N)nc12 (single isomer, unassigned) [Example I-78]	1.7	0.7
CC[C@H](C)NC(=O)c1cc(-c2cnn(C(c3ccc(OCC(F)(F)F)nc3)C(C)C)c2)cc2nc(N)nn12 (single isomer, unassigned) [Example I-117]	250	73
CC[C@H](C)NC(=O)c1cc(-c2cnn(C(c3ccccc3)C(C)(C)C)c2)cn2nc(N)nc12 (single isomer, unassigned) [Example I-35]	990	410
CCC(c1ccc(C(F)(F)F)nc1)n1cc(-c2cc(C(=O)N[C@@H](C)CO)c3nc(N)nn3c2)cn1 (mixture of isomers) [Example I-151, 2-Amino-N-[(2S)-1-hydroxypropan-2-yl]-6-(1-{1-[6-(trifluoromethyl)pyridin-3-yl]propyl}-1H-pyrazol-4-yl)[1,2,4]triazolo[1,5-a]pyridine-8-carboxamide]	9.8	6.9
CC[C@H](C)NC(=O)c1cc(-c2cnn(C3CCN(CC)CC3)c2)cn2nc(N)nc12 (single isomer, unassigned) [Example I-6]	6.7	17
CC[C@H](C)NC(=O)c1cc(-c2cnn(C(c3cncc(Cl)c3)C(C)C)c2)cn2nc(N)nc12 (single isomer, unassigned) [Example I-63]	5.2	0.4
CC[C@H](C)NC(=O)c1cc(-c2cnn([C@H](c3ccnc(OC)c3)C(C)C)c2)cc2nc(N)nn12 (single isomer, unassigned) [Example I-128]	3.3	0.5
CCC(c1ccc(C(F)(F)F)nc1)n1cc(-c2cc(C(=O)N[C@H]3CCOC3)n3nc(N)nc3c2)cn1 (single isomer, unassigned) [Example I-178]	64	17
